Reference: patent EP0819124B1, “AZOLE COMPOUNDS WITH ANTIMYCOTIC ACTIVITY FOR HUMAN AND VETERINARY USE” (ZAMBON GROUP S.p.A., priority 1995, dated 1996)
Converted amounts (≈) assume the structure as drawn. Like-named read-outs stand apart in the source and are kept apart here.

Assays:
[1] = test system: C. neoformans; experiment: In vitro antimycotic activity, macromethod of scalar broth dilutions (YNB); assay type: cell-based; conditions: Cryptococcus neoformans; C. neoformans; YNB, incubation at 35°C for 48 hours; read-out: IC50
Protocol: (§1) The determination of the activity inhibiting the growth of mycetes was evaluated by the macromethod of scalar brothdilutions in geometrical progression (M.R. McGinnis and M.G. Rinaldi, "Antifungal drugs: mechanisms of action, drug resistance, susceptibility testing and assay of activity in biological fluids", in Antibiotic in Laboratory Medicine, Ed. V. Lorian, Baltimora 1991).
(§2) As culture media Yeast Nitrogen Base broth (YNB) and Sabouraud Dextrose broth (SDB) were used for yeasts and moulds, respectively.
(§3) The results obtained in SDB (after incubation at 28°C for 7 days) were expressed as minimum inhibiting concentrations (MIC) the growth of mycetes, while those obtained in YNB (after incubation at 35°C for 48 hours) were expressed as concentrations able to inhibit at 50% (IC50) the growth of the yeast.
(§4) As reference compounds Fluconazole, Itraconazole and Genaconazole were used.

[2] = test system: Candida albicans 1040; experiment: In vivo antimycotic activity in mice experimentally infected by C. albicans, oral route; set-up: species or system Charles River white mice (CD1 strain); conditions: for PD50 at 8th day / PD50 at 14th day: oral route, probits analysis; for PD50 at 8th day: 8 days from the infection; for PD50 at 14th day: 14 days from the infection; for antimycotic activity in comparison with the compounds of formula II, statement in words: test not named, only in vivo data are printed for R1 and R2
Protocol: Charles River white mice (CD1 strain) weighing from 23 to 25 g, normo-feeded with standard diet and water ad libitum were used.
A suspension (0.2 ml containing 2.5x10^7 cells/ml) of Candida albicans 1040 in physiologic solution was injected to each animal by venous route. Immediately after the infection and after 4, 24 and 48 hours, the animals received by oral route (in arabic gum at 2%) doses increasing in a geometrical progression of the compound to be tested. The infected group was used as control.
The observation of the mortality of the mice was prolonged up to 14 days. From the number of survived animals for each concentration the average protective dose (DP50) was calculated by probits analysis (L.Lison - "Statistica applicata alla biologia sperimentale. La programmazione dell'esperimento e l'analisi dei risultati" - Casa Editrice Ambrosiana, 1961).
Compounds R1 and R2 were used as comparative compounds.
Fluconazole and Itraconazole were used as reference compounds.

[3] = test system: T.mentagrophytes; experiment: In vitro antimycotic activity, macromethod of scalar broth dilutions (SDB); assay type: cell-based, Trychophyton mentagrophytes; conditions: Trichophyton mentagrophytes, 168 h; T.mentagrophytes; SDB, incubation at 28°C for 7 days; read-out: MIC
Protocol: as §1, §2, §3, §4

[4] = test system: C. albicans 1040; experiment: In vitro antimycotic activity, macromethod of scalar broth dilutions (YNB); assay type: cell-based, Candida albicans; conditions: Candida albicans; C. albicans 1040; YNB, incubation at 35°C for 48 hours; read-out: IC50
Protocol: as §1, §2, §3, §4

[5] = test system: A. fumigatus; experiment: In vitro antimycotic activity, macromethod of scalar broth dilutions (SDB); assay type: cell-based; conditions: Aspergillus fumigatus, 168 h
Protocol: as §1, §2, §3, §4

[6] = test system: C. tropicalis (2); experiment: In vitro antimycotic activity, strain panel (Table 2); assay type: cell-based; conditions: Candida tropicalis; C. tropicalis, 2 strains; single value or range printed under head MIC50 MIC90; read-out: MIC
Protocol: as §1, §2, §3, §4
(§5) Note to the table: MIC expressed as µg/ml Within brackets the number of tested strains Table 3

[7] = test system: C. spp * (5) (C. parapsilosis, lusitaniae, kefyr); experiment: as above; assay type: cell-based; conditions: Lodderomyces parapsilosis, C. parapsilosis, lusitaniae, kefyr, 5 strains; for MIC50: read-out: MIC50; for MIC90: read-out: MIC90
Protocol: as §1, §2, §3, §4, §5

[8] = test system: C. albicans (7); experiment: as above; assay type: cell-based; conditions: Candida albicans, C. albicans, 7 strains; for MIC50: read-out: MIC50; for MIC90: read-out: MIC90
Protocol: as §1, §2, §3, §4, §5

[9] = test system: Trichosporon sp. (1); experiment: as above; assay type: cell-based; conditions: Trichosporon sp., 1 strain; single value under head MIC50 MIC90; read-out: MIC
Protocol: as §1, §2, §3, §4, §5

[10] = test system: B. capitatus (1); experiment: as above; assay type: cell-based; conditions: Magnusiomyces capitatus; B. capitatus, 1 strain; single value under head MIC50 MIC90; read-out: MIC
Protocol: as §1, §2, §3, §4, §5

[11] = test system: C. neoformans (4); experiment: as above; assay type: cell-based; conditions: Cryptococcus neoformans, C. neoformans, 4 strains; for MIC50: read-out: MIC50; for MIC90: read-out: MIC90
Protocol: as §1, §2, §3, §4, §5

[12] = test system: A. niger; experiment: In vitro antimycotic activity against recently isolated Aspergillus niger (Table 3); assay type: cell-based; conditions: A. niger strain 94-6222; quantity and unit not given in Table 3
Protocol: as §1, §2, §3, §4

[13] = test system: Fusarium sp; experiment: In vitro antimycotic activity against recently isolated Fusarium strains (Tables 2 and 3); assay type: cell-based; conditions: quantity and unit not given in Table 3
Protocol: as §1, §2, §3, §4, §5

[14] = test system: C. krusei (2); experiment: In vitro antimycotic activity, strain panel (Table 2); assay type: cell-based, Candida krusei; conditions: Pichia kudriavzevii; C. krusei, 2 strains; range printed under head MIC50 MIC90; read-out: MIC
Protocol: as §1, §2, §3, §4, §5

[15] = A. fumigatus, SDB, incubation at 28°C for 7 days, read-out: MIC

Compound	IC50 [1]	PD50 at 8th day [2]	PD50 at 14th day [2]	MIC [3]	IC50 [4]	MIC [5, 15]	also measured
CC(C)(COC(F)(F)C(F)C(F)(F)F)C(O)(Cn1cncn1)c1ccc(F)cc1F (racemic) [Compound 9]	0.125 µg/mL (≈ 0.279 µM)	0.89 mg/kg/os	1.57 mg/kg/os	2 µg/mL (≈ 4.47 µM)	0.0156 µg/mL (≈ 0.0349 µM)	> 128 µg/mL	
CC(C)(COCC(F)(F)C(F)F)C(O)(Cn1cncn1)c1ccc(F)cc1F (racemic) [Compound 10, (±)-1-(1H-1,2,4-triazolyl)-2-hydroxy-2-(2,4-difluorophenyl)-3,3-dimethyl-4-(2,2,3,3-tetrafluoropropoxy)butane]	0.0625 µg/mL (≈ 0.152 µM)			0.5 µg/mL (≈ 1.22 µM)	0.0156 µg/mL (≈ 0.0379 µM)	8 µg/mL (≈ 19.4 µM)	
CC(C)(COC(F)(F)F)C(O)(Cn1cncn1)c1ccc(F)cc1F (racemic) [Compound 12, (±)-1-(1H-1,2,4-triazolyl)-2-hydroxy-2-(2,4-difluorophenyl)-3,3-dimethyl-4-trifluoromethoxy-butane]	0.0156 µg/mL (≈ 0.0427 µM)	1.09 mg/kg/os	1.39 mg/kg/os	0.125 µg/mL (≈ 0.342 µM)	0.0156 µg/mL (≈ 0.0427 µM)	4 µg/mL (≈ 10.9 µM)	
OC(Cn1cncn1)(Cn1cncn1)c1ccc(F)cc1F [Fluconazole, reference compound]	2 µg/mL (≈ 6.53 µM)	0.125 mg/kg/os	0.61 mg/kg/os	16 µg/mL (≈ 52.2 µM)	0.5 µg/mL (≈ 1.63 µM)		MIC [6]: 4 to 16 µg/mL (≈ 13.1 to 52.2 µM); MIC50 [7]: 1 µg/mL (≈ 3.27 µM); MIC90 [7]: 2 µg/mL (≈ 6.53 µM); MIC50 [8]: 4 µg/mL (≈ 13.1 µM); MIC90 [8]: 32 µg/mL (≈ 104 µM); MIC [9]: 32 µg/mL (≈ 104 µM); MIC [10]: 4 µg/mL (≈ 13.1 µM); MIC50 [11]: 1 µg/mL (≈ 3.27 µM); MIC90 [11]: 32 µg/mL (≈ 104 µM); MIC [5]: > 128 µg/mL
CCC(C)n1ncn(-c2ccc(N3CCN(c4ccc(OCC5COC(Cn6cncn6)(c6ccc(Cl)cc6Cl)O5)cc4)CC3)cc2)c1=O (stereo not drawn) [Itraconazole, reference compound]		2.31 mg/kg/os	>8 mg/kg/os				In vitro antimycotic activity [12]: ≤0.03; In vitro antimycotic activity ([13]; Fusarium sp strain 81-256): 2; In vitro antimycotic activity ([13]; Fusarium sp strain 86-3369): 2-16; In vitro antimycotic activity ([13]; Fusarium sp strain 88-2116): 2-8; In vitro antimycotic activity ([13]; Fusarium sp strain 946301): 2-16; MIC [6]: 0.1 µg/mL (≈ 0.142 µM); MIC50 [7]: ≤ 0.03 µg/mL; MIC90 [7]: 0.06 µg/mL (≈ 0.085 µM); MIC50 [8]: 0.06 µg/mL (≈ 0.085 µM); MIC90 [8]: 0.12 µg/mL (≈ 0.17 µM); MIC50 [11]: ≤ 0.03 µg/mL; MIC90 [11]: 0.1 µg/mL (≈ 0.142 µM); % percentage of survival after day 3 ([2]; mice infected by C. albicans, dose 25 mg/kg/os, day 3): 100%; % percentage of survival after day 6 ([2]; mice infected by C. albicans, dose 25 mg/kg/os, day 6): 100%; MIC [14]: 0.03 to 0.12 µg/mL (≈ 0.0425 to 0.17 µM)
(±)-1-(1H-1,2,4-triazolyl)-2-hydroxy-2-(2,4-difluorophenyl)-3,3-dimethyl-4-ethoxy-butane [Compound R1, reference compound]		>4 mg/kg/os	>4 mg/kg/os				antimycotic activity in comparison with the compounds of formula II, statement in words [2]: substantially inactive
(±)-1-(1H-1,2,4-triazolyl)-2-hydroxy-2-(2,4-difluorophenyl)-3-(2,2,3,3-tetrafluoropropoxy)butane [Compound R2, reference compound]		>4 mg/kg/os	>4 mg/kg/os				antimycotic activity in comparison with the compounds of formula II, statement in words [2]: substantially inactive
